These results are taken from patent US20110152088A1, “Herbicidal Composition Comprising Flufenacet” (BAYER CROPSCIENCE AG, priority 2009, published 2011).

For experiment [1], the system named is POAAN. As to the kind of experiment: Greenhouse trial: PE soil application vs incorporation into the soil (test methods 1, 3 and 4). Type of experiment: in vivo, Poa annua. Particulars: g of AS/ha: (A) 120, (B) 1200, (C) 140, (A)+(B)+(C) 120 + 1200 + 140. The procedure: (§1) In the standard design of the test, seeds of various broad-leaved weed and weed grass biotypes (origins) were sown in a 8-13 cm diameter pot filled with natural soil of a standard field soil (loamy silt; non-sterile) and covered with a covering soil layer of about 1 cm. The pots were then cultivated in a greenhouse (12-16 h of light, temperature day 20-22° C., night 15-18° C.) until the time of application. The pots were treated on a laboratory track sprayer with spray liquors comprising the compositions according to the invention, mixtures of the prior art or components used individually. Application of the active compounds or active compound combinations formulated as WG, WP, EC or otherwise was carried out at the appropriate growth stages of the plants. The application rate for the spray application was 100-600 l of water/ha. After the treatment, the plants were returned to the greenhouses.
(§2) About 3 weeks after the application, the soil action or/and foliar action was assessed visually according to a scale of 0-100% in comparison to an untreated comparative group: 0%=no noticeable effect compared to the untreated comparative group; 100%=full effect compared to the untreated comparative group.
(§3) (notes: the term “seeds” also includes vegetative propagation forms such as, for example, rhizome pieces; abbreviations used: h light=hours of illumination, g of AS/ha=gram of active substance per hectare, I/ha=liter per hectare, S=sensitive, R=resistant) • 1. Pre-emergence action against weeds: seeds of various broad-leaved weed and weed grass biotypes (origins) were sown in a 8-13 cm diameter pot filled with natural soil of a standard field soil (loamy silt; non-sterile) and covered with a covering soil layer of about 1 cm. The pots were then cultivated in a greenhouse (12-16 h of light, temperature day 20-22° C., night 15-18° C.) until the time of application. The pots were treated at the BBCH stage 00-10 of the seeds/plants on a laboratory track sprayer with spray liquors comprising the compositions according to the invention, mixtures or components used individually, as WG, WP, EC or other formulations. The application rate for the spray application was 100-600 l of water/ha. After the treatment, the plants were returned to the greenhouses and, when required, treated with fertilizer and watered. • 2. Post-emergence action against weeds: seeds of various broad-leaved weed and weed grass biotypes (origins) were sown in a 8-13 cm diameter pot filled with natural soil of a standard field soil (loamy silt; non-sterile) and covered with a covering soil layer of about 1 cm. The pots were then cultivated in a greenhouse (12-16 h of light, temperature day 20-22° C., night 15-18° C.) until the time of application. The pots were treated at various BBCH stages between 11-25 of the seeds/plants, i.e. generally between two to three weeks after the start of the cultivation, on a laboratory track sprayer with spray liquors comprising the compositions according to the invention, mixtures or components used individually, as WG, WP, EC or other formulations. The application rate for the spray application was 100-600 l of water/ha. After the treatment, the plants were returned to the greenhouses and, when required, treated with fertilizer and watered. • 3. Pre-emergence action against weeds with and without incorporation of active compound: seeds of various broad-leaved weed and weed grass biotypes (origins) were sown in a 8-13 cm diameter pot filled with natural soil of a standard field soil (loamy silt; non-sterile). […]

Experiment [2] relates to APESV. As to the kind of experiment: Greenhouse trial: PO application (test methods 2 and 5). Type of experiment: in vivo, Apera Spica-venti. Conditions: g of AS/ha: (A) 120, (B) 1600, (C) 140, (A)+(B)+(C) 120 + 1600 + 140. Here is the method: as §1, §2
(§4) (notes: the term “seeds” also includes vegetative propagation forms such as, for example, rhizome pieces; abbreviations used: h light=hours of illumination, g of AS/ha=gram of active substance per hectare, I/ha=liter per hectare, S=sensitive, R=resistant) • 1. Pre-emergence action against weeds: seeds of various broad-leaved weed and weed grass biotypes (origins) were sown in a 8-13 cm diameter pot filled with natural soil of a standard field soil (loamy silt; non-sterile) and covered with a covering soil layer of about 1 cm. The pots were then cultivated in a greenhouse (12-16 h of light, temperature day 20-22° C., night 15-18° C.) until the time of application. […]

Experiment [3] deals with POAAN. Described as above. Particulars: g of AS/ha: (A) 120, (B) 1600, (C) 140, (A)+(B)+(C) 120 + 1600 + 140. It is filed as in vivo, Poa annua. Here is the method: as §1, §2, §4
Experiment [4] has as its system LOLPE. Description: Greenhouse trial: PE application vs application 7 days prior to sowing (test method 6). Type of experiment: in vivo, Lolium perenne. Here is the method:
as §1, §2, §3

The subject of experiment [5] is AVEFA. Described as above. Type of experiment: in vivo, Avena fatua. The procedure: as §1, §2, §3
In experiment [6] the test system is LOLPE. Description: Greenhouse trial: PE application with different irrigation variants (test method 7). It is filed as in vivo, Lolium perenne. Conditions: g of AS/ha: (A) 120, (B) 1200, (C) 140, (A)+(B)+(C) 120 + 1200 + 140. Here is the method:
as §1, §2, §3

Experiment [7] has as its system AVEFA. The experiment is described as above. It is filed as in vivo, Avena fatua. Particulars: g of AS/ha: (A) 120, (B) 1200, (C) 140, (A)+(B)+(C) 120 + 1200 + 140. Here is the method: as §1, §2, §3
The test system of experiment [8] is MATCH. Described as above. It is filed as in vivo, Matricaria chamomilla. Particulars: g of AS/ha: (A) 120, (B) 1200, (C) 140, (A)+(B)+(C) 120 + 1200 + 140. Here is the method:
as §1, §2, §3

Experiment [9] deals with LOLPE. As to the kind of experiment: Greenhouse trial: different soil types (test method 8). Type of experiment: in vivo, Lolium perenne. Particulars: g of AS/ha: (A) 120, (B) 1200, (C) 90, (A)+(B)+(C) 120 + 1200 + 90. Here is the method: as §1, §2, §3
The subject of experiment [10] is MATCH. The experiment is described as above. It is filed as in vivo, Matricaria chamomilla. Conditions: g of AS/ha: (A) 120, (B) 1200, (C) 140, (A)+(B)+(C) 120 + 1200 + 140. Here is the method:
as §1, §2, §3

The subject of another experiment is STEME. Description: Greenhouse trial: resistant biotypes following PE application (test method 9). Type of experiment: in vivo, Stellaria media. Conditions: g of AS/ha: (A) 90, (B) 1200, (C) 140, (A)+(B)+(C) 90 + 1200 + 140, iodosulfuron 10; for activity STEME resistant / activity STEME sensitive: PE; for activity STEME resistant: resistant biotype; for activity STEME sensitive: sensitive biotype. Here is the method:
as §1, §2, §3

Another experiment deals with LOLSS. The experiment is described as above. Particulars: PE, g of AS/ha: (A) 90, (B) 1200, (C) 140, (A)+(B)+(C) 90 + 1200 + 140, iodosulfuron 10; for activity LOLSS resistant: resistant biotype; for activity LOLSS sensitive: sensitive biotype. It is filed as in vivo, Lolium species. Here is the method: as §1, §2, §3
The test system of experiment [11] is MATCH. Description: Greenhouse trial: different sowing depths on PE application (test method 10). Type of experiment: in vivo, Matricaria chamomilla. Conditions: g of AS/ha: (A) 90, (B) 1200, (C) 140, (A)+(B)+(C) 90 + 1200 + 140; for activity MATCH 5 mm: sowing depth 5 mm; for activity MATCH 20 mm: sowing depth 20 mm. Here is the method:
as §1, §2, §3

In experiment [12] the test system is APESV. The description is as above. It is filed as in vivo, Apera Spica-venti. Particulars: g of AS/ha: (A) 90, (B) 1200, (C) 140, (A)+(B)+(C) 90 + 1200 + 140; for activity APESV 5 mm: sowing depth 5 mm; for activity APESV 20 mm: sowing depth 20 mm. Here is the method:
as §1, §2, §3

Where [13] appears, read: PE application, g of AS/ha: (A) 90, (B) 1200, (C) 140, mixture 90 + 1200 + 140.
The mark [14] stands for this setting: application 7 days prior to sowing, g of AS/ha: (A) 90, (B) 1200, (C) 140, (A)+(B)+(C) 90 + 1200 + 140.

Regarding `CC(C)N(C(=O)COc1nnc(C(F)(F)F)s1)c1ccc(F)cc1` [(A) flufenacet, N-(4-fluorophenyl)-N-(1-methylethyl)-2-[[5-(trifluoromethyl)-1,3,4-thiadiazol-2-yl]oxy]acetamide], the figures for the “activity POAAN” value in the experiment on POAAN [1] (Incorporation), with POAAN [1] (PE application) and with POAAN [3] were 90%, 70% and 60%, respectively. The “activity APESV” value in the experiment on APESV [2] was 60%. In addition, the “activity LOLPE” value in the experiment with LOLPE [4] (setting [13]) is recorded as 90%; in the experiment with LOLPE [4] (setting [14]) it was 80%; with LOLPE [6] (Irrigation from above), 80%; in the experiment on LOLPE [6] (Irrigation from below), 78%. Further, the “activity AVEFA” value worked out at 80% in the experiment on AVEFA [5] (setting [13]), 70% in the experiment on AVEFA [5] (setting [14]), 85% in the experiment with AVEFA [7] (Irrigation from above) and 50% in the experiment on AVEFA [7] (Irrigation from below). Moreover, the figures for the “activity MATCH” value in the experiment with MATCH [8] (Irrigation from above) and in the experiment with MATCH [8] (Irrigation from below) were 49% and 35%, respectively. Also, the “activity LOLPE IU soil” value with LOLPE [9] was found to be 89%. The “activity LOLPE IU/EC73 soil” value in the experiment on LOLPE [9] was 0%. Also, the “activity MATCH IU soil” value in the experiment on MATCH [10] is recorded as 80%. Moreover, the “activity MATCH IU/EC73 soil” value with MATCH [10] stood at 0%. Also, the “activity STEME resistant” value with STEME is recorded as 0%. Further, the “activity STEME sensitive” value in the experiment with STEME is listed as 0%. Moreover, the “Difference Δ^D activity resistant to activity sensitive, STEME” value in the experiment with STEME is given as “Δ^D ± 0%”. Further, the “activity LOLSS resistant” value with LOLSS was determined as 10%. Moreover, the “activity LOLSS sensitive” value with LOLSS came out at 85%. Further, the “activity MATCH 5 mm” value with MATCH [11] came to 30%. Moreover, the “activity MATCH 20 mm” value in the experiment with MATCH [11] is listed as 30%. Also, the “activity APESV 5 mm” value with APESV [12] was 65%. The “activity APESV 20 mm” value in the experiment on APESV [12] is given as 70%.

As for `CCCN(CCC)C(=O)SCc1ccccc1` [(B) prosulfocarb, S-(phenylmethyl) dipropylcarbamothioate], the results for the “activity POAAN” value in the experiment with POAAN [1] (Incorporation), in the experiment on POAAN [1] (PE application) and in the experiment on POAAN [3] were 85%, 35% and 30%, respectively. Further, in the experiment on APESV [2], the “activity APESV” value stood at 20%. For the same molecule, the “activity LOLPE” value with LOLPE [4] (setting [13]) is 80%; with LOLPE [4] (setting [14]), 0%; in the experiment on LOLPE [6] (Irrigation from above) it was 10%; in the experiment on LOLPE [6] (Irrigation from below), 5%. The “activity AVEFA” value in the experiment with AVEFA [5] (setting [13]) is recorded as 80%; with AVEFA [5] (setting [14]) it was 10%; in the experiment with AVEFA [7] (Irrigation from above), 5%; in the experiment on AVEFA [7] (Irrigation from below), 10%. Further, the “activity MATCH” value with MATCH [8] (Irrigation from above) and with MATCH [8] (Irrigation from below) was 0% each time. Further, the “activity LOLPE IU soil” value with LOLPE [9] amounted to 0%. For the same molecule, the “Difference of the soil types Δ^D, LOLPE” value in the experiment with LOLPE [9] (IU/EC73 soil vs IU soil) is “Δ^D + 0%”. The “activity LOLPE IU/EC73 soil” value in the experiment with LOLPE [9] was determined as 0%. For the same molecule, in the experiment with MATCH [10], the “activity MATCH IU soil” value was 10%. Further, the “activity MATCH IU/EC73 soil” value with MATCH [10] was 0%. Moreover, the “activity STEME resistant” value in the experiment with STEME came out at 40%. Besides, the “activity STEME sensitive” value in the experiment with STEME was 70%. The “activity LOLSS resistant” value with LOLSS was determined as 65%. Besides, the “activity LOLSS sensitive” value with LOLSS was 85%. Also, the “activity MATCH 5 mm” value with MATCH [11] is recorded as 0%. In the experiment on MATCH [11], the “activity MATCH 20 mm” value is on record as 0%. Besides, the “activity APESV 5 mm” value in the experiment with APESV [12] came out at 50%. For the same molecule, the “activity APESV 20 mm” value in the experiment with APESV [12] amounted to 20%.

For `COc1nc(C)nc(NC(=O)NS(=O)(=O)c2cc(I)ccc2C(=O)O)n1` [iodosulfuron], in the experiment with STEME, the “activity STEME resistant” value turned out to be 40% and the “activity STEME sensitive” value was 90%. Moreover, in the experiment on LOLSS, the “activity LOLSS resistant” value came out at 50% and the “activity LOLSS sensitive” value came out at 98%.
